Test results from paper PMC7795425, “Synthesis and Biological Activity of Brassinosteroid Analogues with a Nitrogen-Containing Side Chain” (International Journal of Molecular Sciences, 2020).
Entries after “also recorded” stand apart in the source; their conditions may differ.

Experiments:
[1] = system: Arabidopsis thaliana L. (Columbia ecotype, Col-0) seedlings; assay: Arabidopsis root sensitivity bioassay; type: in vivo; conditions: for root length, mean: 7-day-old seedlings; for elongation of roots (growth-promoting activity) compared to the control: low concentrations (0.1 and 1 nM)
Experimental: Several bioassays such as the first bean internode, root growth and rice lamina inclination have been developed to evaluate the growth-promoting activity of BR derivatives. In this work, the activity of new BR analogues was evaluated using the Arabidopsis root sensitivity test because of its simplicity and high sensitivity for BRs.. The characteristic effect of exogenously applied BRs on light-grown Arabidopsis is dose-dependent—BRs in higher concentrations cause inhibition of root growth; vice versa, low concentrations are stimulating. The results obtained for 24-epiBL, which was used as a positive control, and the BR derivatives are shown in Figure 2, Figure 3 and Figure S21. […] A similar trend was shown for dimethylammonium hydrochloride 22a and morpholinium hydrochloride 22e with a long side chain. For numerical values of the average, SD and p-value, see Table S2.
The biological activity of the new BRs derivatives was tested by an Arabidopsis sensitivity bioassay which was performed according to [28]. Briefly, seedlings of Arabidopsis thaliana L. (Columbia ecotype, Col-0) were stratified for 2 days at 4 °C and germinated on vertical half-strength Murashige and Skoog (1% w/v sucrose) agar at 22 °C in a 16 h/8 h light–dark cycle. The plates contained concentrations of 24-epiBL (as positive control) and BR derivatives ranging from 0.1 to 10 nM, respectively 100 nM (for selected derivatives only). After 7 days, roots were straightened on solid media plates and scanned with an Epson high-resolution scanner. The entire root length was measured with ImageJ (http://rsbweb.nih.gov/ij/). For each treatment, more than 15 seedlings were analyzed in two biological repeats, and p-values were calculated with the two-tailed Student t-test using Excel software.
Figure 2 Effect of selected brassinosteroid derivatives on the inhibition of Arabidopsis root length. Seven-day-old Arabidopsis thaliana seedlings (Columbia ecotype, Col-0) were treated with DMSO as control/24epiBL/BR short side chain derivatives; (A)—amides, (B)—amines, (C)—ammonium hydrochlorides. For each treatment, more than 15 seedlings were analyzed in two biological repeats. Error bars represent SD. Asterisks represent significant changes (t-test); * represents p-value < 0.05, in comparison to control.
Figure 3 Effect of selected brassinosteroid derivatives on the inhibition of Arabidopsis root length. Seven-day-old Arabidopsis thaliana seedlings (Columbia ecotype, Col-0) were treated with DMSO as control/24epiBL/BR long side chain derivatives; (A)—amides, (B)—ammonium hydrochlorides. For each treatment, more than 15 seedlings were analyzed in two biological repeats. Error bars represent SD. Asterisks represent significant changes (t-test); * represents p-value < 0.05, in comparison to control.
Table S2: Data for figure 2, 3, and S21. P value <0.05(t-test), comparison to control.
control (mean ± SD) 16.3 ± 1.21
*only selected compounds were tested
mean(mm) SD t-test mean (mm) SD t-test mean (mm) SD t-test mean (mm) SD t-test
(1 picture or pasted object on this page, not shown here)

[2] = Calcein AM cytotoxicity assay, CEM; type: cell-based; conditions: human, CEM T-lymphoblastic leukemia cells, IC50 > 50 µM means inactive, read-out: Cytotoxic activity IC50
Experimental: (§1) The effect of the prepared BRs derivatives on the viability (in Calcein AM assays) of BJ human fibroblasts (as an example of a “normal” cell line) and human cancer cell lines of various histopathological origins, including: T-lymphoblastic leukemia CEM, breast carcinoma MCF7 and cervical carcinoma cell line HeLa, was also studied. Cells of all these lines were exposed to six 3-fold dilutions of each drug for 72 h prior to determination of cell survival. The IC50 (concentration leading to 50% inhibition of viability) values obtained from the Calcein AM cytotoxicity assay were calculated. […] All tested BR nitrogen-containing derivatives had no detectable activity, even when tested in concentrations of up to 50 µM.
(§2) The screening cell lines: T-lymphoblastic leukemia CEM; breast carcinoma MCF7 (estrogen-sensitive); cervical carcinoma cell line HeLa; and human foreskin fibroblasts BJ, were obtained from the American Type Culture Collection (Manassas, VA, USA). Cells were cultured in DMEM (Dulbecco’s Modified Eagle Medium, Sigma, St. Louis, MO, USA). Media used were supplemented with 10% fetal bovine serum, 2mM L-glutamine and 1% penicillin–streptomycin. The cell lines were maintained under standard cell culture conditions at 37 °C and 5% CO2 in a humid environment.
(§3) Cells were subcultured twice or three times a week using the standard trypsinization procedure. Cytotoxicity in cancer cell lines after 72 h was determined as described earlier. Control cultures were treated with DMSO alone, and the final concentration of DMSO in the mixture never exceeded 0.6%. Six serial 3-fold dilutions of the test substances were added at time zero in 20 μL aliquots to the microtiter plate wells and the highest final concentration in the wells was 50 μM.
(§4) Table S3: Cytotoxic activities, IC50 (µM/L)a, of compounds in three tumor and one normal fibroblast
(§5) Compound CEM MCF7 HeLa BJ
(§6) a The lowest concentration that kills 50% of cells.
(§7) b Increase of cell proliferation.

[3] = Calcein AM cytotoxicity assay, MCF7; type: cell-based; conditions: human, MCF7 breast carcinoma cells (estrogen-sensitive), MCF7, 72 h, IC50 > 50 µM means inactive, read-out: Cytotoxic activity IC50
Experimental: as §1, §2, §3, §4, §5, §6, §7

[4] = Calcein AM cytotoxicity assay, HeLa; type: cell-based; conditions: human, HeLa cervical carcinoma cells, IC50 > 50 µM means inactive, read-out: Cytotoxic activity IC50
Experimental: as §1, §2, §3, §4, §5, §6, §7

[5] = Calcein AM cytotoxicity assay, BJ; type: cell-based; conditions: human, BJ foreskin fibroblasts (normal cell line), IC50 > 50 µM means inactive, read-out: Cytotoxic activity IC50
Experimental: as §1, §2, §3, §4, §5, §6, §7

[6] = 100 nM (only selected compounds), control 14.61 ± 0.85

SMILES	root length, mean ([1]; 0.1 nM, control 16.3 ± 1.21) [mm]	root length, mean ([1]; 1 nM, control 16.3 ± 1.21) [mm]	root length, mean ([1]; 10 nM, control 16.3 ± 1.21) [mm]	root length, mean [1, 6] [mm]	elongation of roots (growth-promoting activity) compared to the control [1]	inhibitory effect on Arabidopsis root growth ([1]; tested 0.1 to 10 nM, selected derivatives also 100 nM)	IC50 at 72 h [2] [µM]	IC50 at 72 h [3] [µM]	IC50 at 72 h [4] [µM]	IC50 at 72 h [5] [µM]	melting point
C[C@H](C(=O)N(C)C)[C@H]1CC[C@H]2[C@@H]3CC(=O)[C@H]4C[C@H](O)[C@H](O)C[C@]4(C)[C@H]3CC[C@]12C [8a, N,N-dimethyl-(20S)-2α,3α-dihydroxy-6-oxo-5α-pregnane-20-carboxamide]	16.12	18.41	16.46	13.329	slight elongation of roots; also recorded: interesting growth-promoting activity	weak inhibition up to the highest tested concentration of 100 nM	> 50	> 50	> 50	> 50	> 230 °C (dec.)
C[C@H]([C@@H](O)[C@@H](O)CN1CCOCC1)[C@H]1CC[C@H]2[C@@H]3CC(=O)[C@H]4C[C@H](O)[C@H](O)C[C@]4(C)[C@H]3CC[C@]12C.Cl [22e, 4-((20S,22R,23S)-2α,3α,22,23-tetrahydroxy-6-oxo-5α-cholan-24-yl)morpholinium chloride]	17.93	17.27	16.95		interesting growth-promoting activity		> 50	> 50	> 50	> 50	> 270 °C (dec.)
C[C@H]([C@@H](O)[C@H](O)C(=O)N1CCCCC1)[C@H]1CC[C@H]2[C@@H]3CC(=O)[C@H]4C[C@H](O)[C@H](O)C[C@]4(C)[C@H]3CC[C@]12C [20d, 1-((20S,22R,23S)-2α,3α,22,23-tetrahydroxy-6-oxo-5α-cholan-24-oyl)piperidine]	14.37	14.50	14.51				> 50	> 50	> 50	> 50	> 200 °C (dec.)
C[C@H](C(=O)N1CCOCC1)[C@H]1CC[C@H]2[C@@H]3CC(=O)[C@H]4C[C@H](O)[C@H](O)C[C@]4(C)[C@H]3CC[C@]12C [8e, 4-((20S)-2α,3α-dihydroxy-6-oxo-5α-pregnane-20-carbonyl)morpholine]	17.77	17.44	15.16		slight elongation of roots; also recorded: interesting growth-promoting activity		> 50	> 50	> 50	> 50	> 270 °C (dec.)
CCN(CC)C(=O)[C@@H](C)[C@H]1CC[C@H]2[C@@H]3CC(=O)[C@H]4C[C@H](O)[C@H](O)C[C@]4(C)[C@H]3CC[C@]12C [8b, N,N-diethyl-(20S)-2α,3α-dihydroxy-6-oxo-5α-pregnane-20-carboxamide]	18.41	15.15	16.95	13.836	slight elongation of roots; also recorded: interesting growth-promoting activity		> 50	> 50	> 50	> 50	> 200 °C (dec.)
C[C@H](C(=O)N1CCCC1)[C@H]1CC[C@H]2[C@@H]3CC(=O)[C@H]4C[C@H](O)[C@H](O)C[C@]4(C)[C@H]3CC[C@]12C [8c, 1-((20S)-2α,3α-dihydroxy-6-oxo-5α-pregnane-20-carbonyl)pyrrolidine]	17.61	18.58	15.97				> 50	> 50	> 50	> 50	> 180 °C (dec.)
C[C@H](C(=O)N1CCCCC1)[C@H]1CC[C@H]2[C@@H]3CC(=O)[C@H]4C[C@H](O)[C@H](O)C[C@]4(C)[C@H]3CC[C@]12C [8d, 1-((20S)-2α,3α-dihydroxy-6-oxo-5α-pregnane-20-carbonyl)piperidine]	17.11	15.97	14.18				> 50	> 50	> 50	> 50	> 230 °C (dec.)
C[C@H]([C@@H](O)[C@@H](O)CN1CCCCC1)[C@H]1CC[C@H]2[C@@H]3CC(=O)[C@H]4C[C@H](O)[C@H](O)C[C@]4(C)[C@H]3CC[C@]12C.Cl [22d, 1-((20S,22R,23S)-2α,3α,22,23-tetrahydroxy-6-oxo-5α-cholan-24-yl)piperidinium chloride]	15.48	15.97	16.62				> 50	> 50	> 50	> 50	> 250 °C (dec.)
